Assay results published in US4605673A, “7H-dibenzo(a,c,)cyclohepten-5-one-(7) derivatives” (Warner-Lambert Company, priority 1982, dated 1986).
Structures can show the parent of a compound that is named as a salt. Where two headings read alike, the source gives them in different places.

Experiments:
Toxicity (LD50) = conditions: in vivo
[1] = tested on: blood-pressure effect of noradrenaline and adrenaline; test: (F) Autonomous test model after IV catecholamine administration (potentiation of blood-pressure effect of noradrenaline and adrenaline); format: in vivo, dogs; conditions: for Potentiation of catecholamine blood-pressure effect (F): dogs, result in words
From the text: (F) Autonomous test model in dogs after IV catecholamine administration.

[2] = (E) Anticholinergic action measured as mydriasis; format: in vivo, mice; conditions: mouse, in vivo, po
From the text: (§1) (E) Anticholinergic action measured as mydriasis (mice).

[3] = tested on: Reserpine-induced hypothermia; test: (A) Reserpine-induced hypothermia in mice (antidepressive action); format: in vivo; conditions: Mus musculus, read-out: Minimal dosage which leads to normalization of body temperature (A)
From the text: The minimal dosage is given which leads to normalization of body temperature measured rectally.

[4] = tested on: hexobarbital sleeping period; test: (D) Hexobarbital sleeping period (central sedating or stimulating effects); format: in vivo; conditions: mice, 82.5 mg/kg hexobarbital IV
Method: (D) The lengthening of the sleeping period is a common in vivo method for the determination of central sedating or stimulating effects. The test animals are mice subsequent to intravenous (IV) injection with 82.5 mg/kg hexobarbital. The influence on the sleeping period under the trial substance is given in % for control purposes.

spontaneous motility = test: (C) Locomotive activity (spontaneous motility), photoelectric systems; format: in vivo; conditions: mice; for Spontaneous motility (C), M = methaqualone: 40 m/g i.g.
Method: (C) The locomotive activity reflects the stimulating or depressive effects on the C.N. system. The spontaneous motility (impulses per minute) was measured in mice by means of photoelectric systems according to Irwin (Rev. Can. Biol. 20, 239 (1961). K in the margin=control, (twice), M=methaqualone (40 m/g i.g.) and S=substance.

mydriasis = test: (E) Anticholinergic action measured as mydriasis; format: in vivo, mice; conditions: mice
From the text: as §1

gastric secretion = test: Shay preparation, gastric secretion; format: in vivo; conditions: po
[5] = 10 mg/kg s.c., control K 12 (4A), 13 (4B)

## CN(C)CCC=C1c2ccccc2CCc2ccccc21 [Amitryptyline, reference compound]
Toxicity (LD50); po, i.g.
  LD50: 200 mg/kg
Toxicity (LD50); sc
  LD50: 100 mg/kg
[1]; Canis lupus familiaris, iv, read-out: Potentiation of catecholamine blood-pressure effect ED50 (F)
  ED50: 1 mg/kg
[2]
  ED50: 23 mg/kg
[3]; sc
  minimal effective dose: 5 mg/kg
[4]; 5 mg/kg s.c.
  Influence on the sleeping period (D): +103%
Spontaneous motility; 5 mg/kg s.c., control K 17
  Spontaneous motility (C), S = substance: 4 impulses per minute

## CCN(CC)CCOc1cc(=O)c2ccccc2c2ccccc12 [Example 1, 5-(2-Diethylaminoethoxy)-7H-dibenzo(a,c)cyclohepten-5-one(7).hydrochloride]
Toxicity (LD50); po, i.g.
  LD50: 300 mg/kg
[1]
  Potentiation of catecholamine blood-pressure effect (F): no effect
mydriasis; up to 75 mg/kg s.c.
  Anticholinergic action (mydriasis) (E): no effect
[3]; po, i.g.
  minimal effective dose: 20 mg/kg
[3]; sc
  minimal effective dose: 5 mg/kg
[4]; 5 mg/kg s.c.
  Influence on the sleeping period (D): -42%
Gastric secretion; Shay preparation, 25 mg/kg i.g.
  inhibition at 25 mg/kg: 56%
Spontaneous motility; 5 mg/kg s.c., control K 17
  Spontaneous motility (C), S = substance: 20 impulses per minute

## CN(C)CCCc1cc(=O)c2ccccc2c2ccccc12 [Example 4A, 5-(3-Dimethylaminopropyl)-7H-dibenzo(a,c)cyclohepten-5-one(7)]
Toxicity (LD50); po, i.g.
  LD50: 200 mg/kg
[1]
  Potentiation of catecholamine blood-pressure effect (F): no effect
mydriasis; up to 75 mg/kg s.c.
  Anticholinergic action (mydriasis) (E): no effect
[3]; po, i.g.
  minimal effective dose: 20 mg/kg
[3]; sc
  minimal effective dose: 5 mg/kg
Spontaneous motility; [5]
  Spontaneous motility (C), S = substance: 12 impulses per minute

## CCN(CC)CCCc1cc(=O)c2ccccc2c2ccccc12 [Example 4B, 5-(3-Diethylaminopropyl)-7H-dibenzo(a,c)cyclohepten-5-one(7).oxalate]
Toxicity (LD50); po, i.g.
  LD50: 200 mg/kg
[1]
  Potentiation of catecholamine blood-pressure effect (F): no effect
mydriasis; up to 75 mg/kg s.c.
  Anticholinergic action (mydriasis) (E): no effect
[3]; po, i.g.
  minimal effective dose: 30 mg/kg
[3]; sc
  minimal effective dose: 10 mg/kg
[4]; 10 mg/kg s.c.
  Influence on the sleeping period (D): +11%
Spontaneous motility; [5]
  Spontaneous motility (C), S = substance: 21 impulses per minute

## CNCCCc1cc(=O)c2ccccc2c2ccccc12 [Example 4C, 5-(3-methylaminopropyl)-7H-dibenzo(a,c)cyclohepten-5-one(7).oxalate]
Toxicity (LD50); po, i.g.
  LD50: 800 mg/kg
[1]
  Potentiation of catecholamine blood-pressure effect (F): no effect
mydriasis; up to 200 mg/kg i.g.
  Anticholinergic action (mydriasis) (E): no effect
[3]; po, i.g.
  minimal effective dose: 75 mg/kg
Spontaneous motility; 150 mg/kg i.g., control K 15
  Spontaneous motility (C), S = substance: 19 impulses per minute

## Cc1ccccc1-n1c(C)nc2ccccc2c1=O [M]
Spontaneous motility; Amitryptyline column, control K 20
  Spontaneous motility (C), M = methaqualone: 2 impulses per minute
Spontaneous motility; Example 1 column, control K 20
  Spontaneous motility (C), M = methaqualone: 2 impulses per minute
Spontaneous motility; Example 4A column, control K 16
  Spontaneous motility (C), M = methaqualone: 3 impulses per minute
Spontaneous motility; Example 4B column, control K 20
  Spontaneous motility (C), M = methaqualone: 2 impulses per minute
Spontaneous motility; Example 4C column, control K 19
  Spontaneous motility (C), M = methaqualone: 6 impulses per minute

## CN/C(=N/CCSCc1nc[nH]c1C)NC#N [cimetidine, reference compound]
Gastric secretion; read-out: Inhibition of gastric secretion
  inhibition at 80 mg/kg: 45%
